Results as given in the CheMixHub viscosity set.
± gives the uncertainty stated by the source.

Assay: xn = mol fraction of the nth substance listed

CCCCCCCO + CO
viscosity [mPa·s], 101 kPa
Conditions	298.15 K	308.15 K	318.15 K
x2 = 0.05	5.378 ± 0.052	3.995 ± 0.037	2.975 ± 0.028
x2 = 0.1	4.999 ± 0.048	3.737 ± 0.034	2.809 ± 0.026
x2 = 0.15	4.634 ± 0.044	3.487 ± 0.032	2.647 ± 0.024
x2 = 0.2	4.284 ± 0.04	3.246 ± 0.029	2.488 ± 0.022
x2 = 0.25	3.949 ± 0.036	3.013 ± 0.027	2.332 ± 0.021
x2 = 0.3	3.627 ± 0.033	2.788 ± 0.025	2.179 ± 0.019
x2 = 0.35	3.319 ± 0.03	2.571 ± 0.023	2.028 ± 0.018
x2 = 0.4	3.025 ± 0.027	2.362 ± 0.021	1.88 ± 0.016
x2 = 0.45	2.744 ± 0.024	2.161 ± 0.019	1.735 ± 0.015
x2 = 0.5	2.475 ± 0.022	1.967 ± 0.017	1.592 ± 0.014
x2 = 0.55	2.22 ± 0.019	1.78 ± 0.015	1.453 ± 0.013
x2 = 0.6	1.978 ± 0.017	1.602 ± 0.014	1.317 ± 0.011
x2 = 0.65	1.75 ± 0.015	1.431 ± 0.012	1.184 ± 0.01
x2 = 0.7	1.534 ± 0.013	1.267 ± 0.011	1.056 ± 0.0092
x2 = 0.75	1.333 ± 0.012	1.113 ± 0.0097	0.9327 ± 0.0082
x2 = 0.8	1.145 ± 0.0099	0.9661 ± 0.0084	0.815 ± 0.0072
x2 = 0.85	0.9716 ± 0.0085	0.8284 ± 0.0073	0.7037 ± 0.0063
x2 = 0.9	0.8131 ± 0.0072	0.6998 ± 0.0063	0.5997 ± 0.0055
x2 = 0.95	0.6699 ± 0.006	0.5807 ± 0.0053	0.504 ± 0.0047

CCN(CC)S(C)(=O)=O + CO
303.15 K, 101.33 kPa
Conditions	viscosity [mPa·s]
x1 = 0.065	60400 ± 8500
x1 = 0.1394	73000 ± 11000
x1 = 0.2155	88400 ± 14000
x1 = 0.2885	103400 ± 16000
x1 = 0.3717	123400 ± 20000
x1 = 0.4509	145100 ± 25000
x1 = 0.5148	164500 ± 29000
x1 = 0.5856	187800 ± 35000
x1 = 0.6922	228900 ± 45000
x1 = 0.7686	263600 ± 54000
x1 = 0.8304	295600 ± 63000
x1 = 0.9084	341400 ± 76000

CS(C)=O + CO
Conditions	viscosity [mPa·s]
298.15 K, 101 kPa, x1 = 0.2	0.705 ± 0.012
298.15 K, 101 kPa, x1 = 0.4	0.942 ± 0.016
298.15 K, 101 kPa, x1 = 0.6	1.212 ± 0.021
298.15 K, 101 kPa, x1 = 0.8	1.581 ± 0.026
298.15 K, 101.3 kPa, x1 = 0.0439	0.583 ± 0.031
298.15 K, 101.3 kPa, x1 = 0.093	0.616 ± 0.033
298.15 K, 101.3 kPa, x1 = 0.1279	0.642 ± 0.034
298.15 K, 101.3 kPa, x1 = 0.2139	0.708 ± 0.037
298.15 K, 101.3 kPa, x1 = 0.2908	0.792 ± 0.04
298.15 K, 101.3 kPa, x1 = 0.3809	0.884 ± 0.044
298.15 K, 101.3 kPa, x1 = 0.4902	1.03 ± 0.051
298.15 K, 101.3 kPa, x1 = 0.6224	1.259 ± 0.06
298.15 K, 101.3 kPa, x1 = 0.7858	1.564 ± 0.073
298.15 K, 101.3 kPa, x1 = 0.8923	1.768 ± 0.082
298.15 K, 101.3 kPa, x1 = 0.9667	1.923 ± 0.089
298.15 K, 101.31 kPa, x1 = 0.1531	0.66 ± 0.017
298.15 K, 101.31 kPa, x1 = 0.1961	0.695 ± 0.018
298.15 K, 101.31 kPa, x1 = 0.2939	0.792 ± 0.021
298.15 K, 101.31 kPa, x1 = 0.4044	0.917 ± 0.024
298.15 K, 101.31 kPa, x1 = 0.533	1.064 ± 0.028
298.15 K, 101.31 kPa, x1 = 0.6303	1.201 ± 0.031
298.15 K, 101.31 kPa, x1 = 0.7167	1.379 ± 0.036
298.15 K, 101.31 kPa, x1 = 0.817	1.586 ± 0.041
298.15 K, 101.31 kPa, x1 = 0.8886	1.737 ± 0.045
299 K, 101 kPa, x1 = 0.0375	0.9137
299 K, 101 kPa, x1 = 0.119	1.048
299 K, 101 kPa, x1 = 0.2599	1.264
299 K, 101 kPa, x1 = 0.3691	1.384
299 K, 101 kPa, x1 = 0.4937	1.964
299 K, 101 kPa, x1 = 0.7172	2.348
303.15 K, 101.3 kPa, x1 = 0.0439	0.544 ± 0.03
303.15 K, 101.3 kPa, x1 = 0.093	0.566 ± 0.031
303.15 K, 101.3 kPa, x1 = 0.1279	0.583 ± 0.031
303.15 K, 101.3 kPa, x1 = 0.2139	0.661 ± 0.035
303.15 K, 101.3 kPa, x1 = 0.2908	0.741 ± 0.038
303.15 K, 101.3 kPa, x1 = 0.3809	0.82 ± 0.042
303.15 K, 101.3 kPa, x1 = 0.4902	0.937 ± 0.047
303.15 K, 101.3 kPa, x1 = 0.6224	1.11 ± 0.054
303.15 K, 101.3 kPa, x1 = 0.7858	1.368 ± 0.065
303.15 K, 101.3 kPa, x1 = 0.8923	1.573 ± 0.074
303.15 K, 101.3 kPa, x1 = 0.9667	1.713 ± 0.08
308.15 K, 101.31 kPa, x1 = 0.1531	0.581 ± 0.015
308.15 K, 101.31 kPa, x1 = 0.1961	0.612 ± 0.016
308.15 K, 101.31 kPa, x1 = 0.2939	0.694 ± 0.018
308.15 K, 101.31 kPa, x1 = 0.4044	0.798 ± 0.021
308.15 K, 101.31 kPa, x1 = 0.533	0.92 ± 0.024
308.15 K, 101.31 kPa, x1 = 0.6303	1.03 ± 0.027
308.15 K, 101.31 kPa, x1 = 0.817	1.336 ± 0.035
308.15 K, 101.31 kPa, x1 = 0.8886	1.454 ± 0.038
318.15 K, 101.31 kPa, x1 = 0.1531	0.514 ± 0.013
318.15 K, 101.31 kPa, x1 = 0.1961	0.544 ± 0.014
318.15 K, 101.31 kPa, x1 = 0.2939	0.613 ± 0.016
318.15 K, 101.31 kPa, x1 = 0.533	0.804 ± 0.021
318.15 K, 101.31 kPa, x1 = 0.6303	0.894 ± 0.023
318.15 K, 101.31 kPa, x1 = 0.817	1.141 ± 0.03
318.15 K, 101.31 kPa, x1 = 0.8886	1.194 ± 0.031

C[N+](C)(C)CCC[n+]1ccccc1.N#C[N-]C#N.N#C[N-]C#N + CO
viscosity [mPa·s], 100 kPa
Conditions	293.15 K	303.15 K	313.15 K
x1 = 0.2001	–	11.45 ± 1.2	–
x1 = 0.8995	952.8 ± 130	–	198.5 ± 22
